# Like-named read-outs stand apart in the source and are kept apart here.
# What was measured:
# Assay in all cases: Disk diffusion assay (zone of inhibition)
# [1] = tested on: MRSA T998528; type: cell-based; conditions: Staphylococcus aureus, 20 μl of 1.25 mg/ml in 4% P80/Span 80 (1:1), calcium alginate swabs, dried overnight, duplicate, read-out: Inhibition zone diameter
# Description: (§1) Oritavancin powder was dissolved in freshly-prepared solutions of the indicated excipients at concentrations of 0.625, 1.25, 2.5, 5, and 10 mg/ml (adjusted for potency based on lot 875561L00 purity of 83.1%) by vortexing for a minimum of 5 minutes. Oritavancin solutions in the various excipients, while not visually clear, were free from any apparent particulates as assessed visually. Sterile Oxoid blank disks were impregnated with 20 μl of these oritavancin solutions, resulting in oritavancin disk loads ranging from 12.5 to 200 μg. Unless indicated otherwise, disks were allowed to dry overnight at room temperature prior to use.
# (§2) Bacterial suspensions from isolated colonies on overnight cation-adjusted Mueller Hinton agar plates were prepared in sterile saline and adjusted to an optical density of 0.1 at 600 nm Standard cation-adjusted Mueller Hinton agar plates (90 mm diameter) were seeded with bacterial suspensions by initially swabbing the center of plate then moving outward. Swabbing was continued at a right angle and then at an oblique angle to the first and second swabs. Disks were placed upon the seeded plates with sterile forceps. Plates were then incubated overnight at 37° C. and inhibition zone diameters were measured with a ruler and reported in millimeters.
# [2] = tested on: MSSA V406985; type: cell-based; conditions: Staphylococcus aureus, 20 μl of 1.25 mg/ml in 4% P80/Span 80 (1:1), calcium alginate swabs, dried overnight, duplicate, read-out: Inhibition zone diameter
# Description: as §1, §2
# [3] = tested on: MSSA T759545; type: cell-based; conditions: Staphylococcus aureus, 20 μl of 1.25 mg/ml in 4% P80/Span 80 (1:1), calcium alginate swabs, dried overnight, duplicate, read-out: Inhibition zone diameter
# Description: as §1, §2
# [4] = tested on: MSSA U148267; type: cell-based; conditions: Staphylococcus aureus, 20 μl of 1.25 mg/ml in 4% P80/Span 80 (1:1), calcium alginate swabs, dried overnight, duplicate, read-out: Inhibition zone diameter
# Description: as §1, §2
# [5] = tested on: MRSA V288615; type: cell-based; conditions: Staphylococcus aureus, 20 μl of 1.25 mg/ml in 4% P80/Span 80 (1:1), calcium alginate swabs, dried overnight, duplicate, read-out: Inhibition zone diameter
# Description: as §1, §2
# [6] = tested on: MRSA ATCC 33591; type: cell-based; conditions: Staphylococcus aureus, 25 μg (1.25 mg/ml) in 4% P80/Span 80 (1:1), dried overnight, read-out: Inhibition zone diameter
# Description: as §1, §2
# [7] = tested on: MRSA T998608; type: cell-based; conditions: Staphylococcus aureus, 20 μl of 1.25 mg/ml in 4% P80/Span 80 (1:1), calcium alginate swabs, dried overnight, duplicate, read-out: Inhibition zone diameter
# Description: as §1, §2
# [8] = tested on: MRSA V406957; type: cell-based; conditions: Staphylococcus aureus, 20 μl of 1.25 mg/ml in 4% P80/Span 80 (1:1), calcium alginate swabs, dried overnight, duplicate, read-out: Inhibition zone diameter
# Description: as §1, §2
# [9] = tested on: MSSA Q141066; type: cell-based; conditions: Staphylococcus aureus, 20 μl of 1.25 mg/ml in 4% P80/Span 80 (1:1), calcium alginate swabs, dried overnight, duplicate, read-out: Inhibition zone diameter
# Description: as §1, §2
# [10] = tested on: MRSA U784439; type: cell-based; conditions: Staphylococcus aureus, 20 μl of 1.25 mg/ml in 4% P80/Span 80 (1:1), calcium alginate swabs, dried overnight, duplicate, read-out: Inhibition zone diameter
# Description: as §1, §2
# [11] = tested on: MRSA Q141067; type: cell-based, Staphylococcus aureus; conditions: 20 μl of 1.25 mg/ml in 4% P80/Span 80 (1:1), calcium alginate swabs, dried overnight, duplicate
# Description: as §1, §2
# [12] = tested on: MRSA V257345; type: cell-based, Staphylococcus aureus; conditions: 20 μl of 1.25 mg/ml in 4% P80/Span 80 (1:1), calcium alginate swabs, dried overnight, duplicate
# Description: as §1, §2
# [13] = tested on: MRSA NRS121-ORI^RS; type: cell-based; conditions: Staphylococcus aureus, read-out: Zone diameter (mm ± SD)
# Text: (§3) The study was designed to identify conditions that improve oritavancin diffusion in agar and consequently yield a zone diameter ≧15 mm for the CLSI quality control strain MSSA ATCC 25923. Excipients that increased the disk diffusion of oritavancin in agar relative to disks containing only oritavancin were identified and selected for further study. […] A prediffusion step at room temperature was introduced to maximize oritavancin diffusion prior to initiation of bacterial growth. In this step, the antimicrobial disks were placed on agar plates seeded with a bacterial isolate and incubated at room temperature for 3 hours. Plates were then incubated overnight at 37° C. Zone diameters around the disks in which bacterial growth was inhibited were measured with a ruler and reported in millimeters.
# (§4) Ethanol-sterilized Whatman paper disks (6 mm diameter) were allowed to dry then impregnated with 20 microliters of oritavancin solution containing total amounts ranging from 90 to 360 micrograms. Disks were allowed to dry at room temperature for various times prior to use.
# (§5) Bacterial suspensions were prepared and adjusted to an optical density of 0.1 at 600 nm. Standard cation-adjusted Mueller Hinton agar plates (90 mm diameter) were seeded with bacterial suspensions by initially swabbing the center of plate then moving outward towards the edge. The plate was swabbed a second time, perpendicular to the orientation of the first swab. To assess the impact of prediffusion on diameter of inhibition zones, two disks were immediately placed on one half of the plate and the plate was incubated for 3 hours at room temperature. After 3 hours, two additional disks were placed on the other half of the plate then the plate was incubated overnight at 37° C. Zone diameters were measured with a ruler and reported in millimeters.
# [14] = tested on: MSSA T972018; type: cell-based; conditions: Staphylococcus aureus, read-out: Zone diameter (mm ± SD)
# Text: as §3, §4, §5
# [15] = tested on: MRSA NRS121; type: cell-based; conditions: Staphylococcus aureus, read-out: Zone diameter (mm ± SD), NRS121, 360 μg in 5% P80
# Text: as §3, §4, §5
# [16] = tested on: MRSA NRS123-ORI^RS; type: cell-based; conditions: Staphylococcus aureus, read-out: Zone diameter (mm ± SD)
# Text: as §3, §4, §5
# [17] = tested on: MRSA NRS123; type: cell-based; conditions: Staphylococcus aureus; for zone of inhibition at 90 µg/disc: 90 μg oritavancin; for zone of inhibition at 180 µg/disc: 180 μg oritavancin
# Text: as §3, §4, §5
# [18] = tested on: VISA Mu50 (ATCC 700699); type: cell-based; conditions: Staphylococcus aureus, Oxoid disks, 20 μl of 18 mg/ml oritavancin in 5% P80, stored 30 days at room temperature, prediffusion 6 hours at 4° C., read-out: Inhibition zone diameter
# [19] = Staphylococcus aureus, MRSA, read-out: Inhibition zone diameter
# [20] = 360 μg in 5% P80, Average, no prediffusion
# [21] = 360 μg in 5% P80, Average, prediffusion
# [22] = 360 μg in 5% P80, Experiment 2, disks stored 8 days, 3 h prediffusion at room temperature
# [23] = 192 h, 360 μg in 5% P80, Experiment 2, disks stored 8 days, no prediffusion
# [24] = 192 h, 2.5% P80, disks stored 8 days, prediffusion, read-out: Average zone diameter
# [25] = 336 h, 5% P80, disks stored 14 days, prediffusion, read-out: Average zone diameter
# [26] = 336 h, 10% P80, disks stored 14 days, prediffusion, read-out: Average zone diameter
structure (smiles),measurement,setting,value
"CN[C@H](CC(C)C)C(=O)N[C@H]1C(=O)N[C@@H](CC(N)=O)C(=O)N[C@H]2C(=O)N[C@H]3C(=O)N[C@H](C(=O)N[C@H](C(=O)O)c4cc(O)cc(O)c4-c4cc3ccc4O)[C@H](O[C@H]3C[C@](C)(N)[C@@H](O)[C@H](C)O3)c3ccc(c(Cl)c3)Oc3cc2cc(c3O[C@@H]2O[C@H](CO)[C@@H](O)[C@H](O)[C@H]2O[C@H]2C[C@](C)(NCc3ccc(-c4ccc(Cl)cc4)cc3)[C@@H](O)[C@H](C)O2)Oc2ccc(cc2Cl)[C@H]1O [oritavancin, N-(4-(4-chlorophenyl)benzyl)A82846B]",zone of inhibition at 1250 µg/mL,[1],21 mm
same,zone of inhibition at 1250 µg/mL,[2],24 mm
same,zone of inhibition at 1250 µg/mL,[3],22 mm
same,zone of inhibition at 1250 µg/mL,[4],21 mm
same,zone of inhibition at 1250 µg/mL,[5],23 mm
same,zone of inhibition at 25 µg/disc,[6],22 mm
same,zone of inhibition at 1250 µg/mL,[7],22 mm
same,zone of inhibition at 1250 µg/mL,[8],21 mm
same,zone of inhibition at 1250 µg/mL,[9],20 mm
same,zone of inhibition at 1250 µg/mL,[10],20 mm
same,Inhibition zone diameter,[11],22 mm
same,zone of inhibition at 1250 µg/mL,[11]; [19],21 mm
same,Inhibition zone diameter,[12],22 mm
same,zone of inhibition at 1250 µg/mL,[12]; [19],21 mm
same,zone of inhibition at 360 µg/disc,[13]; [20],13 mm
same,zone of inhibition at 360 µg/disc,[13]; [21],14 mm
same,zone of inhibition at 360 µg/disc,[13]; [22],14 mm
same,zone of inhibition at 360 µg/disc,[13]; [23],13 mm
same,zone of inhibition at 360 µg/disc,"[14]; 360 μg in 5% P80, Average of experiments, no prediffusion",15 ± 0.6 mm
same,zone of inhibition at 360 µg/disc,"[14]; 360 μg in 5% P80, Average of experiments, prediffusion",17.4 ± 0.3 mm
same,zone of inhibition at 360 µg/disc,"[14]; 360 μg in 5% P80, Experiment 1, disks stored 14 days, 3 h prediffusion at room temperature",17.5 mm
same,zone of inhibition at 360 µg/disc,[14]; [22],17.3 ± 0.4 mm
same,zone of inhibition at 360 µg/disc,[14]; [23],14.5 mm
same,zone of inhibition at 360 µg/disc,"[14]; 336 h, 360 μg in 5% P80, Experiment 1, disks stored 14 days, no prediffusion",15.5 mm
same,zone of inhibition at 360 µg/disc,"[15]; 192 h, Experiment 2, disks stored 8 days, no prediffusion",15 mm
same,zone of inhibition at 360 µg/disc,"[15]; Average, no prediffusion",15 mm
same,zone of inhibition at 360 µg/disc,"[15]; Average, prediffusion",17.3 ± 0.4 mm
same,zone of inhibition at 360 µg/disc,"[15]; Experiment 2, disks stored 8 days, 3 h prediffusion at room temperature",17.3 ± 0.4 mm
same,zone of inhibition at 360 µg/disc,[16]; [20],14 mm
same,zone of inhibition at 360 µg/disc,[16]; [21],15 mm
same,zone of inhibition at 360 µg/disc,[16]; [22],15 mm
same,zone of inhibition at 360 µg/disc,[16]; [23],14 mm
same,zone of inhibition at 360 µg/disc,"[17]; 360 μg in 5% P80, Average of experiments, no prediffusion, read-out: Zone diameter (mm ± SD)",16 ± 0.4 mm
same,zone of inhibition at 360 µg/disc,"[17]; 360 μg in 5% P80, Average of experiments, prediffusion, read-out: Zone diameter (mm ± SD)",18.8 ± 0.9 mm
same,zone of inhibition at 360 µg/disc,"[17]; 360 μg in 5% P80, Experiment 1, disks stored 14 days, 3 h prediffusion at room temperature, read-out: Zone diameter (mm ± SD)",19.5 mm
same,zone of inhibition at 360 µg/disc,"[17]; 360 μg in 5% P80, Experiment 2, disks stored 8 days, 3 h prediffusion at room temperature, read-out: Zone diameter (mm ± SD)",18 mm
same,zone of inhibition at 90 µg/disc,[17]; [24],15.8 mm
same,zone of inhibition at 180 µg/disc,[17]; [24],16.5 mm
same,zone of inhibition at 360 µg/disc,"[17]; 192 h, 360 μg in 5% P80, Experiment 2, disks stored 8 days, no prediffusion, read-out: Zone diameter (mm ± SD)",15.8 ± 0.4 mm
same,zone of inhibition at 360 µg/disc,"[17]; 192 h, 360 μg oritavancin, 2.5% P80, disks stored 8 days, prediffusion, read-out: Average zone diameter",16.8 mm
same,zone of inhibition at 90 µg/disc,[17]; [25],16 mm
same,zone of inhibition at 90 µg/disc,[17]; [26],15.5 mm
same,zone of inhibition at 180 µg/disc,[17]; [25],17.3 mm
same,zone of inhibition at 180 µg/disc,[17]; [26],17.3 mm
same,zone of inhibition at 360 µg/disc,"[17]; 336 h, 360 μg in 5% P80, Experiment 1, disks stored 14 days, no prediffusion, read-out: Zone diameter (mm ± SD)",16.3 ± 0.4 mm
same,zone of inhibition at 360 µg/disc,"[17]; 336 h, 360 μg oritavancin, 5% P80, disks stored 14 days, prediffusion, read-out: Average zone diameter",18.5 mm
same,zone of inhibition at 360 µg/disc,"[17]; 336 h, 360 μg oritavancin, 10% P80, disks stored 14 days, prediffusion, read-out: Average zone diameter",17.5 mm
same,zone of inhibition at 18000 µg/mL,[18],13 mm

# Source: US8815535B2, “Disk diffusion assay for oritavancin” (The Medicines Company, priority 2011, dated 2014)
